ChEMBL document CHEMBL5226315, “Strategies for Targeting Serine/Threonine Protein Phosphatases with Small Molecules in Cancer” (J Med Chem, 2021)
pEC50, pIC50: −log10 of the molar value. Starred links: 1 amine or outer side, 2 acyl side, 3 side chain; linkers in the order of their positions; H or OH if unused. Positions of bridges follow the written chain, without caps; N, C: chain ends. Non-standard residues stand in square brackets, D forms with d. Residues, ends and D or L forms follow the SMILES beside them. Adda = CO[C@@H](Cc1ccccc1)[C@@H](C)/C=C(C)/C=C/[C@H](N[*:1])[C@H](C)C(=O)[*:2]; dAsp(3S-Me) = C[C@H](C(=O)[*:3])[C@@H](N[*:1])C(=O)[*:2]; d(γGlu) = O=C(O)[C@@H](CCC(=O)[*:2])N[*:1]; NMeDha = C=C(NC)C(=O)O

Assays:
[1] = test system: NCI-H358; assay: Anticancer activity against human NCI-H358 cells; assay type: functional
[2] = target: T1, Serine/threonine-protein phosphatase 6 catalytic subunit (Homo sapiens, UniProt O00743); assay: Inhibition of PP6 (unknown origin)
T1 sequence (O00743 whole entry): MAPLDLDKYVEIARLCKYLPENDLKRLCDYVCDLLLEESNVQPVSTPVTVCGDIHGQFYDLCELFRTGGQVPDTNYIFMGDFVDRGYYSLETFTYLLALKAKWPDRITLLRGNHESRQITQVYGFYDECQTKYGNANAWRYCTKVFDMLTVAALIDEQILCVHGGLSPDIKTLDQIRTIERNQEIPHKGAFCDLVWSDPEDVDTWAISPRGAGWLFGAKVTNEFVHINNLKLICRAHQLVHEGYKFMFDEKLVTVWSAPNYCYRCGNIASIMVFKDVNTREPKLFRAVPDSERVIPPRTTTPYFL

[3] = Inhibition of porcine testis PP4; design: species or system Sus scrofa
[4] = Inhibition of PP7 (unknown origin); design: species or system Homo sapiens
[5] = Inhibition of rabbit skeletal muscle PP2A using [3H]-phosphohistone as substrate; design: species or system Oryctolagus cuniculus
[6] = target: T2, Serine/threonine-protein phosphatase 5 (Homo sapiens, UniProt P53041); assay: Inhibition of PP5 (unknown origin)
T2 sequence (P53041 whole entry): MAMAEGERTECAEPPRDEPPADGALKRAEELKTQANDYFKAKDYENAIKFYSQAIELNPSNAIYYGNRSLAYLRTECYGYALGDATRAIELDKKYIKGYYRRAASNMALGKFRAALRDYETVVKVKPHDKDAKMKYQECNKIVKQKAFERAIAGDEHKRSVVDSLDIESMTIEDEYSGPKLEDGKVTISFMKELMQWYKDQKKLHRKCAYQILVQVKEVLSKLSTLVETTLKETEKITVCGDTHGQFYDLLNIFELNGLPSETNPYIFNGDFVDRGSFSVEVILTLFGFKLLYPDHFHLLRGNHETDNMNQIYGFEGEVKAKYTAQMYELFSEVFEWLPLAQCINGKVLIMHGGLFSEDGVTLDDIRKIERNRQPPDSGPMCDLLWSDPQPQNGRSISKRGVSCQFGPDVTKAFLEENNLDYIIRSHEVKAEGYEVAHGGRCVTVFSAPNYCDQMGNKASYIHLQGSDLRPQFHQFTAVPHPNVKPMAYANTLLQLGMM

[7] = Inhibition of rabbit skeletal muscle PP1 using [3H]-phosphohistone as substrate; design: species or system Oryctolagus cuniculus
[8] = Inhibition of PP2A (unknown origin) using [3H]-phosphohistone as substrate by liquid scintillation counting analysis; design: species or system Homo sapiens
[9] = Inhibition of PP1 (unknown origin) using [3H]-phosphohistone as substrate by liquid scintillation counting analysis; design: species or system Homo sapiens
[10] = Inhibition of PP3 (unknown origin) using [3H]-phosphohistone as substrate by liquid scintillation counting analysis; design: species or system Homo sapiens
[11] = Inhibition of PP7 (unknown origin) using [3H]-phosphohistone as substrate by liquid scintillation counting analysis; design: species or system Homo sapiens
[12] = Inhibition of PP4 (unknown origin) using [3H]-phosphohistone as substrate by liquid scintillation counting analysis; design: species or system Homo sapiens
[13] = target: T2, Serine/threonine-protein phosphatase 5; assay: Inhibition of PP5 (unknown origin) using [3H]-phosphohistone as substrate by liquid scintillation counting analysis
[14] = organism: Homo sapiens; assay: Activation of PP2A (unknown origin) at 1000 nM relative to control; settings: filed as activator
[15] = target: T3, Serine/threonine-protein phosphatase 5 (Homo sapiens) (UniProt P53041); assay: Activation of PP5 (unknown origin) assessed as fold increase in activity at > 100000 nM relative to control; settings: filed as activator
T3 sequence (whole entry): T2 sequence (P53041 whole entry)

[16] = target: T3, Serine/threonine-protein phosphatase 5 (Homo sapiens); assay: Inhibition of human full length PP5 expressed in Escherichia coli Rosetta gami2(DE3)pLysS at >1 x 10^6nM relative to control; settings: dose > 1.0 10^6nM
[17] = Inhibition of PP1 (unknown origin); design: species or system Homo sapiens
[18] = target: T4, Serine/threonine-protein phosphatase 2A catalytic subunit alpha isoform (Homo sapiens, UniProt P67775); assay: Inhibition of human PP2AC using [3H]-phosphohistone as substrate
T4 sequence (P67775 whole entry, the tested form may be a part, canonical isoform): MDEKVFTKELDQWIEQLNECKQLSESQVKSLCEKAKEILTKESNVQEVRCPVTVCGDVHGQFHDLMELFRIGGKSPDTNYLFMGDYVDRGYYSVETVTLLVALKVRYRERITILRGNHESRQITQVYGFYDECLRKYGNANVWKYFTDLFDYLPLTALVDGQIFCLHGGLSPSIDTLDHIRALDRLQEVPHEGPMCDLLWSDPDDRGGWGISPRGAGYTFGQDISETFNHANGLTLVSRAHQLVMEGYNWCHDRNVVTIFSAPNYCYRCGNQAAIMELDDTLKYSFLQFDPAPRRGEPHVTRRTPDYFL

[19] = target: T2, Serine/threonine-protein phosphatase 5; assay: Activation of recombinant human PP5 (16 to 499 residues) Escherichia coli BL21 (DE3) using pNPP incubated for 60 mins
[20] = target: T2, Serine/threonine-protein phosphatase 5; assay: Inhibition of human PP5 using [3H]-phosphohistone as substrate
[21] = target: T1, Serine/threonine-protein phosphatase 6 catalytic subunit; assay: Inhibition of PP6 (unknown origin) using [3H]-phosphohistone as substrate by liquid scintillation counting analysis
[22] = target: T4, Serine/threonine-protein phosphatase 2A catalytic subunit alpha isoform; assay: Inhibition of PP2A (unknown origin)
[23] = Inhibition of porcine PP4 using [33P]-labelled substrate; design: species or system Sus scrofa
[24] = Inhibition of PP3 (unknown origin); design: species or system Homo sapiens
[25] = Inhibition of PP3 activity in human Jurkat J77 cells assessed as dephosphorylation of substrate; assay type: cell-based
[26] = Inhibition of PP4 (unknown origin); design: species or system Homo sapiens

SMILES: O=S(=O)(N[C@@H]1CCC[C@H](N2c3ccccc3Oc3ccccc32)[C@H]1O)c1ccc(OC(F)(F)F)cc1
- GI50 [1]: 5 10^3nM

SMILES: C=C1[C@@H](O)[C@@H]2O[C@]3(CC[C@H](/C=C/[C@H](C)[C@@H]4CC(C)=C[C@@]5(OC(C[C@@](C)(O)C(=O)O)CC[C@H]5O)O4)O3)CC[C@H]2O[C@@H]1[C@@H](O)C[C@H](C)[C@H]1O[C@@]2(CCCCO2)CC[C@H]1C (some centres undefined)
- pIC50 [2]: 9.00
- pIC50 [3]: 10.00
- pIC50 [4]: < 6.00
- pIC50 [5]: 9.03
- pIC50 [6]: 8.46
- pIC50 [7]: 9.64

SMILES: C/C=C1/C(=O)N[C@H](OC(=O)O)[C@H](C)C(=O)N[C@@H](CCCNC(=N)N)C(=O)N[C@@H](/C=C/C(C)=C/[C@H](C)[C@H](Cc2ccccc2)OC)[C@H](C)C(=O)N[C@H](OC(=O)O)CCC(=O)N1C
- pIC50 [8]: 10.40
- pIC50 [9]: 8.77
- pIC50 [10]: < 6.00
- pIC50 [11]: < 6.00

SMILES: C=C/C(=C/C(=O)C[C@H](C)C[C@@H](C)CC[C@H](O)[C@H](C)C(=O)C[C@@H](O)[C@@H](C)[C@@H](C)OC(=O)C[C@@H](O)C1=C(C)C(=O)OC1=O)CC
- pIC50 [12]: 7.35
- pIC50 [13]: 7.92
- pIC50 [9]: 9.40
- pIC50 [10]: 4.76

SMILES: CCCCCCCCc1ccc(CCC(N)(CO)CO)cc1
- Activity [14]: 175%

SMILES: COc1ccc(-c2nc(Cc3ccc(Cl)cc3)no2)cc1OC
- fold change (FC) [15]: 4

SMILES: Nc1ccc(-c2nc3ccc(-c4nc5ccc(N)cc5[nH]4)cc3[nH]2)cc1
- inhibition [16]: 40%

SMILES: CN1CCN(C(=O)C2C(C(=O)O)C3CC[C@@H]2O3)CC1 (single isomer, unassigned)
- pIC50 [17]: 8.62
- pIC50 [18]: 6.40

SMILES: CCCCC/C=C\C/C=C\C/C=C\C/C=C\CCCC(=O)O [ARACHIDONIC ACID]
- pEC50 [19]: 4.11

SMILES: COC[C@@H]([C@H](O)[C@H](O)C(=O)NCC[C@H](C)c1nc(/C=C/C[C@@H]2O[C@]3(C[C@@H](O)[C@@H]2C)O[C@H]([C@H](C[C@H](O)[C@H](C)[C@H](O)[C@H](C)/C=C(C)/C(C)=C/C=C/C(C)=C\C#N)OC)[C@H](OP(=O)(O)O)C3(C)C)co1)N(C)C [CALYCULIN A]
- pIC50 [12]: 9.70
- pIC50 [20]: 8.52
- pIC50 [8]: 8.82
- pIC50 [10]: < 6.00
- pIC50 [18]: 9.60
- pIC50 [21]: 8.00

SMILES: C[C@@]12C(=O)OC(=O)[C@]1(C)[C@H]1CC[C@@H]2O1 [CANTHARIDIN]
- pIC50 [22]: 6.80
- pIC50 [2]: 5.10
- pIC50 [20]: 6.40
- pIC50 [23]: 7.30
- pIC50 [17]: 5.77
- pIC50 [6]: 6.22
- pIC50 [24]: < 3.30

SMILES: O=C(O)CCCCCCCCCCCC[C@@H]1C=CCC1 [CHAULMOOGRIC ACID]
- pEC50 [19]: 3.89

SMILES: C[C@@](O)(/C=C/[C@H]1CC=CC(=O)O1)[C@@H](C[C@@H](O)\C=C/C=C\C=C\CO)OP(=O)(O)O [FOSTRIECIN]
- pIC50 [12]: 8.52
- pIC50 [13]: < 5.00
- pIC50 [10]: < 4.00

SMILES: C=C1C(=O)N[C@H](C)C(=O)N[C@@H](CC(C)C)C(=O)N[C@@H](C(=O)O)[C@H](C)C(=O)N[C@@H](CCCNC(=N)N)C(=O)N[C@@H](/C=C/C(C)=C/[C@H](C)[C@H](Cc2ccccc2)OC)[C@H](C)C(=O)N[C@@H](C(=O)O)CCC(=O)N1C [MICROCYSTIN-LR] (R[Adda][d(γGlu)][NMeDha][dA]L[dAsp(3S-Me)]-OH; lactam N-7)
- pIC50 [3]: 9.82
- pIC50 [5]: 10.00
- pIC50 [6]: 9.00
- pIC50 [7]: 8.00
- pIC50 [24]: 6.70

SMILES: C=CC[C@@H]1/C=C(\C)C[C@H](C)C[C@H](OC)[C@H]2O[C@@](O)(C(=O)C(=O)N3CCCC[C@H]3C(=O)O[C@H](/C(C)=C/[C@@H]3CC[C@@H](O)[C@H](OC)C3)[C@H](C)[C@@H](O)CC1=O)[C@H](C)C[C@@H]2OC [TACROLIMUS ANHYDROUS]
- pIC50 [25]: 9.40

SMILES: CO[C@H]([C@H](O)CC(=O)[C@@H](C)[C@@H](O)CC[C@@H](C)[C@@H]1O[C@]2(CC[C@@H](C)[C@H](CC[C@H](C)C(C)=O)O2)CC[C@@H]1C)[C@H](OC(=O)C[C@@H](O)C1=C(C)C(=O)OC1=O)C(C)C [TAUTOMYCIN]
- pIC50 [8]: 8.28
- pIC50 [6]: 8.00
- pIC50 [7]: 10.42
- pIC50 [24]: < 6.00
- pIC50 [26]: 9.40
